This note sets out measurements from US12065654B2, “Plants having increased tolerance to herbicides” (BASF SE, priority 2014, dated 2024).

Test [1] addresses T1, Arabidopsis HPPD (SEQ ID NO:53) (Arabidopsis thaliana, UniProt P93836).
T1 construct: His6 (N); made in house; host or cells: E. coli BL21 (DE3)
T1 sequence (P93836 1-445): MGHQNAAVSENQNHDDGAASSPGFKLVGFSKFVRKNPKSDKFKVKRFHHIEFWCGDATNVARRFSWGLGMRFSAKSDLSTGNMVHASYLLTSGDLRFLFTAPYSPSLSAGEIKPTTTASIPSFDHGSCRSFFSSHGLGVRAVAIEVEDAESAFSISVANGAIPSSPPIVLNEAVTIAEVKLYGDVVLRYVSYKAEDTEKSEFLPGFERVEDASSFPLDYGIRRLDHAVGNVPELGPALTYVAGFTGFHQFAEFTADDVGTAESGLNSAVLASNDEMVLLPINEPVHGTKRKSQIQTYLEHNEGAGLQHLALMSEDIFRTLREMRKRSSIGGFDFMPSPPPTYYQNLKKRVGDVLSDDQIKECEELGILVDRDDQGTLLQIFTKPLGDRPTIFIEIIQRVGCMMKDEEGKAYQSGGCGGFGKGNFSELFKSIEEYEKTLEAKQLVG
As to the kind of experiment: HPPD activity assay (HPLC of homogentisic acid). The class given is biochemical. Particulars: for Normalized tolerance index (TI): Arabidopsis HPPD variant Wild-type (reference, SEQ ID: 53); for TI (tolerance index): Arabidopsis HPPD, not normalized; for TI normalized to Arabidopsis HPPD: HPPD enzyme Arabidopsis (reference). As for the experimental part: (§1) The activity assay for HPPD is based on the analysis of homogentisic acid by reversed phase HPLC.
(§2) The assay mixture can contain 150 mM potassium phosphate buffer pH 7.0, 50 mM L-ascorbic acid, 100 μM Catalase (Sigma-Aldrich), 1 μM FeSO4 and 0.2 units of purified HPPD enzyme in a total volume of 505 μl. 1 unit is defined as the amount of enzyme that is required to produce 1 nmol of HGA per minute at 20° C.
(§3) The reaction is allowed to proceed for 45 min at room temperature. The reaction is stopped by the addition of 50 μl of 4.5 M phosphoric acid. The sample is filtered using a […] pore size PVDF filtration device. 5 μl of the cleared sample is analyzed on an UPLC HSS T3 column (particle size 1.8 μm, dimensions 2, 1×50 mm; Waters) by isocratic elution using 90% 20 mM NaH2PO4 pH 2.2, 10% methanol (v/v).
(§4) HGA is detected electrochemically at 750 mV (mode: DC; polarity: positive) and quantified by integrating peak areas (Empower software; Waters).
(§5) Inhibitors are dissolved in DMSO (dimethylsulfoxide) to a concentration of 0.5 mM. From this stock solution serial five-fold dilutions are prepared in DMSO, which are used in the assay. The respective inhibitor solution accounts for 1% of the assay volume. Thus, final inhibitor concentrations range from 5 μM to 320 pM, respectively. Activities are normalized by setting the uninhibited enzyme activity to 100%. IC50 values are calculated using non-linear regression.
(§6) Using methods which are described in the above examples or well known in the art, purified recombinant wild-type HPPD enzymes are characterized with respect to their kinetic properties and sensitivity towards HPPD inhibiting herbicides. Apparent michaelis constants (Km) and maximal reaction velocities (Vmax) are calculated by non-linear regression with the software GraphPad Prism 5 (GraphPad Software, La Jolla, USA) using a substrate inhibition model. […] Weighted means (by standard error) of Km and IC50 values are calculated from at least three independent experiments. The Cheng-Prusoff equation for competitive inhibition (Cheng, Y. C.; Prusoff, W. H. Biochem Pharmacol 1973, 22, 3099-3108) is used to calculate dissociation constants (Ki).
(§7) Field performance of the HPPD enzyme, which is used as a herbicide tolerance trait may depend not only on its lack of sensitivity towards HPPD inhibiting herbicides but also on its activity. To assess the potential performance of a herbicide tolerance trait a tolerance index (TI) is calculated using the following formula: […]
(§8) Easy comparison and ranking of each trait is enabled by normalizing tolerance indexes on Arabidopsis wild-type HPPD.

Test [2] relates to Avena HPPD. As to the kind of experiment: HPPD activity assay. The class given is biochemical, Avena sativa. Particulars: HPPD enzyme Avena. As to the method:
as §1, §2, §3, §4, §5, §6, §7, §8

Test [3] concerns Chlamydomonas HPPD1. Briefly: HPPD activity assay. The class given is biochemical, Chlamydomonas reinhardtii. Particulars: HPPD enzyme Chlamydomonas HPPD1. As to the method:
as §1, §2, §3, §4, §5, §6, §7, §8

Test [4] deals with T2, Hordeum HPPD F404L (Hordeum vulgare, UniProt O48604, A164G/F404L/R146V/R147D/R148G).
T2 construct: subcloned into a modified pET24D (Novagen) expression vector resulting in N-terminally His-tagged expression constructs; His tag (N); made in house; host or cells: E. coli BL21 (DE3)
Briefly: HPPD activity assay, mutant. The test is classed as biochemical. Conditions: Hordeum HPPD variant F404L; normalized on wild-type. As to the method: as §1, §2, §3, §4, §5
(§9) Purified, mutant HPPD enzymes are obtained by the methods described above. Dose response and kinetic measurements are carried out using the described HPPD activity assay. Apparent michaelis constants (Km) and maximal reaction velocities (Vmax) are calculated by non-linear regression with the software GraphPad Prism 5 (GraphPad Software, La Jolla, USA) using a substrate inhibition model. […] Weighted means (by standard error) of K. and IC50 values are calculated from at least three independent experiments. The Cheng-Prusoff equation for competitive inhibition (Cheng, Y. C.; Prusoff, W. H. Biochem Pharmacol 1973, 22, 3099-3108) is used to calculate dissociation constants (Ki).
(§10) Field performance of the optimized HPPD enzyme, which is used as a herbicide tolerance trait may depend not only on its lack of sensitivity towards HPPD inhibiting herbicides but also on its activity. To assess the potential performance of a herbicide tolerance trait a tolerance index (TI) is calculated using the following formula: […]
(§11) Easy comparison and ranking of each trait is enabled by normalizing tolerance indexes on the respective wild-type HPPD.

For test [5], the target named is T3, Hordeum HPPD L320H (Hordeum vulgare, UniProt O48604, A164G/L320H/R146V/R147D/R148G).
T3 construct: His-tag (N); made in house; host or cells: E. coli BL21 (DE3)
Briefly: HPPD activity assay, mutant. The test is classed as biochemical. Particulars: Hordeum HPPD variant L320H; normalized on wild-type. As for the experimental part: as §1, §2, §3, §4, §5, §9, §10, §11

Test [6] concerns the target T4, Hordeum HPPD L320N (Hordeum vulgare, UniProt O48604, A164G/L320N/R146V/R147D/R148G).
T4 construct: His-tag (N); made in house; host or cells: E. coli BL21 (DE3)
Briefly: HPPD activity assay, mutant. Conditions: Hordeum HPPD variant L320N; normalized on wild-type. The test is classed as biochemical. As to the method: as §1, §2, §3, §4, §5, §9, §10, §11

In test [7] the target is T5, Hordeum HPPD L320Q (Hordeum vulgare, UniProt O48604, A164G/L320Q/R146V/R147D/R148G).
T5 construct: His-tag (N); made in house; host or cells: E. coli BL21 (DE3)
Briefly: HPPD activity assay, mutant. Conditions: Hordeum HPPD variant L320Q; normalized on wild-type. The test is classed as biochemical. As for the experimental part: as §1, §2, §3, §4, §5, §9, §10, §11

The target of test [8] is T6, Hordeum HPPD L353M, P321R, L320Q (Hordeum vulgare, UniProt O48604, L320Q/L353M/P321R).
T6 construct: His-tag (N); made in house; host or cells: E. coli BL21 (DE3)
Briefly: HPPD activity assay, mutant. The class given is biochemical. Conditions: Hordeum HPPD variant L353M, normalized on wild-type. As to the method:
as §1, §2, §3, §4, §5, §9, §10, §11

The target of test [9] is T7, Hordeum HPPD R309K (Hordeum vulgare, UniProt O48604, A164G/R146V/R147D/R148G/R309K).
T7 construct: subcloned into a modified pET24D (Novagen) expression vector resulting in N-terminally His-tagged expression constructs; His tag (N); made in house; host or cells: E. coli BL21 (DE3)
As to the kind of experiment: HPPD activity assay, mutant. Particulars: Hordeum HPPD variant R309K; normalized on wild-type. The class given is biochemical. As to the method: as §1, §2, §3, §4, §5, §9, §10, §11

The structures appear in SMILES notation.

T3 sequence (O48604 whole entry R146V/R147D/R148G/A164G/L320H): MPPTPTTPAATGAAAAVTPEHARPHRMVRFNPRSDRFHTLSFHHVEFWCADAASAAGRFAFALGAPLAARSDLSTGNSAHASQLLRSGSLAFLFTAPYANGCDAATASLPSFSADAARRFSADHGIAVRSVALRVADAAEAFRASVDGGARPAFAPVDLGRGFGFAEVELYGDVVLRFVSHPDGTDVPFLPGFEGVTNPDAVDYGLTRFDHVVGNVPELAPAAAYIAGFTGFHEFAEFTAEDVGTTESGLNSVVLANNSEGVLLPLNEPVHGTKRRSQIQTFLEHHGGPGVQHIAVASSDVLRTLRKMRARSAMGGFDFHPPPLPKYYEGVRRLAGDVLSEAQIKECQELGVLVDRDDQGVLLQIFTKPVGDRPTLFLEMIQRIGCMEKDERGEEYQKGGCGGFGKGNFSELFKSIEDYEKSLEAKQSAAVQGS
T6 sequence (O48604 whole entry R146V/R147D/R148G/A164G/L320Q/P321R/L353M): as the sequence (O48604 whole entry R146V/R147D/R148G/A164G/L320H) above, with H320Q, P321R, L353M counted along it
T7 sequence (O48604 whole entry R146V/R147D/R148G/A164G/R309K): as the sequence (O48604 whole entry R146V/R147D/R148G/A164G/L320H) above, with R309K, H320L counted along it
T5 sequence (O48604 whole entry R146V/R147D/R148G/A164G/L320Q): as the sequence (O48604 whole entry R146V/R147D/R148G/A164G/L320H) above, with H320Q counted along it
T2 sequence (O48604 whole entry R146V/R147D/R148G/A164G/F404L): as the sequence (O48604 whole entry R146V/R147D/R148G/A164G/L320H) above, with H320L, F404L counted along it
T4 sequence (O48604 whole entry R146V/R147D/R148G/A164G/L320N): as the sequence (O48604 whole entry R146V/R147D/R148G/A164G/L320H) above, with H320N counted along it

Consider `CS(=O)(=O)c1ccc(C(=O)C2C(=O)CCCC2=O)c([N+](=O)[O-])c1` [Inhibitor 2, 2-(4-methylsulfonyl-2-nitro-benzoyl)cyclohexane-1,3-dione], for which the Ki (usually a dissociation constant, usually derived from enzyme kinetics or from competition with a known ligand) in test [1] was found to be 36 nM. For the same compound, the “Normalized tolerance index (TI)” value is given as 1 in test [1]; 0.9 in test [4]; 1.2 in [5]; 0.3 in test [6]; 0.3 in test [7]; 2.2 in test [8]. In addition, the “Normalized tolerance index (TI)” value in test [9] is given as 1.3. In test [1], the “TI (tolerance index)” value turned out to be 3.6E−2. Also, the “TI normalized to Arabidopsis HPPD” value stood at 1 in test [1], 3 in test [2] and 0.1 in [3].
As for `Cc1c(C(=O)c2cnn(C)c2O)ccc(S(C)(=O)=O)c1C1=NOCC1` [Inhibitor 1, [3-(4,5-dihydroisoxazol-3-yl)-2-methyl-4-methylsulfonyl-phenyl]-(5-hydroxy-1-methyl-pyrazol-4-yl)methanone], the “Normalized tolerance index (TI)” value in [1] is recorded as 1; in [4] it was 3; in test [5], 5.4; in test [6] it was 1.3; in [7] it was 1.2; in [8], 5.3. Besides, the “Normalized tolerance index (TI)” value in test [9] is reported as 1.5. For the same compound, the “TI (tolerance index)” value in test [1] was 9.5E−4. Also, the “TI normalized to Arabidopsis HPPD” value in test [1] is 1; in [2] it was 1.6; in test [3] it was 1.7.
On to `CS(=O)(=O)c1ccc(C(=O)C2C(=O)CCCC2=O)c(Cl)c1COCC(F)(F)F` [Inhibitor 4, 2-[2-chloro-4-methylsulfonyl-3-(2,2,2-trifluoroethoxymethyl)benzoyl]cyclohexane-1,3-dione], for which the “Normalized tolerance index (TI)” value in [1] was 1; in test [4], 1.2; in test [5], 5.1; in test [6], 1.5; in [7], 1; in test [8] it was 1.3. The “Normalized tolerance index (TI)” value in [9] is listed as 4.6. The “TI normalized to Arabidopsis HPPD” value in [1] came out at 1; in [2], 3; in [3] it was 0.1.
As to `COCCOCc1nc(C(F)(F)F)ccc1C(=O)C1=C(O)C2CCC(C2)C1=O` (stereo not shown) [Inhibitor 3, 2-hydroxy-3-[2-(2-methoxyethoxymethyl)-6-(trifluoromethyl)pyridine-3-carbonyl]bicyclo[3.2.1]oct-2-en-4-one], the “Normalized tolerance index (TI)” value in [1] stood at 1; in test [4], 0.4; in test [5], 3; in [6], 1.2; in [7] it was 1.1; in [8] it was 0.6. Further, in test [9], the “Normalized tolerance index (TI)” value was 2.5. Further, the “TI normalized to Arabidopsis HPPD” value is 1 in test [1], 2.5 in test [2] and 0.1 in test [3].
